Test results published in ChEMBL document CHEMBL3779887, “Robenidine Analogues as Gram-Positive Antibacterial Agents” (J Med Chem, 2016).
≈ marks a conversion by molar mass, not a printed value. Calls of active or inactive are those of the source. The rule behind the calls is not given here.

What was measured:
Type in all cases: functional
Staphylococcus aureus = assay: Antibacterial activity against methicillin-resistant Staphylococcus aureus after 20 to 24 hrs
Enterococcus = assay: Antibacterial activity against vancomycin-resistant Enterococcus after 20 to 24 hrs
Escherichia coli = assay: Antibacterial activity against Escherichia coli ATCC 25922 after 20 to 24 hrs
Pseudomonas aeruginosa = assay: Antibacterial activity against Pseudomonas aeruginosa ATCC 27853 after 20 to 24 hrs

Row | SMILES | MIC (Staphylococcus aureus) | MIC (Enterococcus) | MIC (Escherichia coli) | MIC (Pseudomonas aeruginosa) | Activity (Escherichia coli)
1 | N=C(N/N=C/c1ccc(Cl)cc1N)N/N=C/c1ccc(Cl)cc1N | 5 µM (≈ 1.82 µg/mL) | 6.3 µM (≈ 2.29 µg/mL) | > 400 µM | > 400 µM | 
2 | CN(C)c1ccc(/C=N/NC(=N)N/N=C/c2ccc(N(C)C)cc2O)c(O)c1 | 229 µM (≈ 87.8 µg/mL) | 76 µM (≈ 29.1 µg/mL) | > 400 µM | > 400 µM | 
3 | N=C(N/N=C/c1ccc(O)cc1O)N/N=C/c1ccc(O)cc1O | > 400 µM | > 400 µM | > 400 µM | > 400 µM | 
4 | CN(C)c1ccc(/C=N/NC(=N)N/N=C/c2ccc(N(C)C)cc2)cc1 | 30.9 µM (≈ 10.9 µg/mL) | 30.9 µM (≈ 10.9 µg/mL) | > 400 µM | > 400 µM | 
5 | N=C(N/N=C(\C(=O)O)c1ccccc1)N/N=C(\C(=O)O)c1ccccc1 | > 400 µM | > 400 µM |  |  | inactive
6 | N=C(N/N=C/c1cccc(C(=O)O)c1)N/N=C/c1cccc(C(=O)O)c1 | > 400 µM | > 400 µM | > 400 µM | > 400 µM | 
7 | C/C(=N\NC(=N)N/N=C(\C)c1ccccc1)c1ccccc1 | 18.2 µM (≈ 5.34 µg/mL) | 49 µM (≈ 14.4 µg/mL) |  |  | inactive
8 | N=C(N/N=C/C(=C/c1ccccc1)c1ccccc1)N/N=C/C(=C/c1ccccc1)c1ccccc1 | 61 µM (≈ 28.6 µg/mL) | > 400 µM |  |  | 
9 | COc1ccc(/C=N/NC(=N)N/N=C/c2ccc(OC)c(OC)c2)cc1OC | > 400 µM | > 400 µM | > 400 µM | > 400 µM | 
10 | N=C(N/N=C/c1ccc2[nH]ccc2c1)N/N=C/c1ccc2[nH]ccc2c1 | 31.6 µM (≈ 10.9 µg/mL) | 42 µM (≈ 14.4 µg/mL) |  |  | 
11 | Cc1ccc(/C=N/NC(=N)N/N=C/c2ccc(C)cc2)cc1 | 9.1 µM (≈ 2.67 µg/mL) | 12.1 µM (≈ 3.55 µg/mL) | > 400 µM | > 400 µM | 
12 | N=C(N/N=C/c1ccccc1)N/N=C/c1ccccc1 | > 400 µM | > 400 µM | > 400 µM | > 400 µM | 
13 | N=C(N/N=C/c1cc(F)ccc1F)N/N=C/c1cc(F)ccc1F | > 400 µM | > 400 µM | > 400 µM | > 400 µM | 
14 | N=C(N/N=C/c1ccccc1Cl)N/N=C/c1ccccc1Cl | > 400 µM | > 400 µM | > 400 µM | > 400 µM | 
15 | N=C(N/N=C/c1ccc(-c2ccccc2)cc1)N/N=C/c1ccc(-c2ccccc2)cc1 | 282 µM (≈ 118 µg/mL) | 106 µM (≈ 44.3 µg/mL) | > 400 µM | > 400 µM | 
16 | N=C(N/N=C/c1ccncc1)N/N=C/c1ccncc1 | > 400 µM | > 400 µM |  |  | 

Row | SMILES | MIC (Staphylococcus aureus) | MIC (Enterococcus) | MIC (Escherichia coli) | MIC (Pseudomonas aeruginosa) | Activity (Escherichia coli)
17 | Cc1cccc(/C=N/NC(=N)N/N=C/c2cccc(C)c2)c1 | 24.4 µM (≈ 7.16 µg/mL) | 24.4 µM (≈ 7.16 µg/mL) | > 400 µM | > 400 µM | 
18 | COc1cccc(/C=N/NC(=N)N/N=C/c2cccc(OC)c2)c1 | 88 µM (≈ 28.6 µg/mL) | 88 µM (≈ 28.6 µg/mL) | > 400 µM | > 400 µM | 
19 | COc1cc(Br)c(/C=N/NC(=N)N/N=C/c2cc(OC)c(OC)cc2Br)cc1OC | > 400 µM | > 400 µM | > 400 µM | > 400 µM | 
20 | COc1ccc(/C=N/NC(=N)N/N=C/c2ccc(OC)c(O)c2)cc1O | > 400 µM | > 400 µM | > 400 µM | > 400 µM | 
21 | N=C(N/N=C/c1ccc(Cl)cc1F)N/N=C/c1ccc(Cl)cc1F | 6.1 µM (≈ 2.26 µg/mL) | 7.4 µM (≈ 2.74 µg/mL) | > 400 µM | > 400 µM | 
22 | N=C(N/N=C/c1cccc(Cl)c1)N/N=C/c1cccc(Cl)c1 | 8.1 µM (≈ 2.71 µg/mL) | 10.8 µM (≈ 3.61 µg/mL) | > 400 µM | > 400 µM | 
23 | N=C(N/N=C/C1CCCCC1)N/N=C/C1CCCCC1 | 408 µM (≈ 113 µg/mL) | 306 µM (≈ 84.9 µg/mL) |  |  | 
24 | N=C(N/N=C/c1cc(O)c(O)c(O)c1)N/N=C/c1cc(O)c(O)c(O)c1 | 161 µM (≈ 58.2 µg/mL) | > 400 µM | > 400 µM | 322 µM (≈ 116 µg/mL) | 
25 | COc1cc(/C=N/NC(=N)N/N=C/c2cc(O)c(O)c(OC)c2)cc(O)c1O | > 400 µM | > 400 µM | > 400 µM | > 400 µM | 
26 | N=C(N/N=C/c1ccc(Br)cc1)N/N=C/c1ccc(Br)cc1 | > 400 µM | > 400 µM | > 400 µM | > 400 µM | 
27 | CC/C(=N\NC(=N)N/N=C(\CC)c1ccc(Cl)cc1)c1ccc(Cl)cc1 | 56 µM (≈ 21.9 µg/mL) | 18.7 µM (≈ 7.3 µg/mL) |  |  | inactive
28 | CC(=O)Nc1ccc(/C=N/NC(=N)N/N=C/c2ccc(NC(C)=O)cc2)cc1 | > 400 µM | > 400 µM | > 400 µM | > 400 µM | 
29 | N=C(N/N=C/c1cc(O)c(O)cc1O)N/N=C/c1cc(O)c(O)cc1O | 161 µM (≈ 58.2 µg/mL) | 322 µM (≈ 116 µg/mL) | > 400 µM | > 400 µM | 
30 | N=C(N/N=C/c1ccc2ccccc2c1)N/N=C/c1ccc2ccccc2c1 | 239 µM (≈ 87.3 µg/mL) | 159 µM (≈ 58.1 µg/mL) |  |  | 
31 | CC(O)Nc1cc(Cl)ccc1/C=N/NC(=N)N/N=C/c1ccc(Cl)cc1NC(C)O (stereo not given) | 66 µM (≈ 29.9 µg/mL) | 98 µM (≈ 44.3 µg/mL) | > 400 µM | > 400 µM | 
32 | N=C(N/N=C/c1ccc(C(F)(F)F)cc1)N/N=C/c1ccc(C(F)(F)F)cc1 | 36.5 µM (≈ 14.6 µg/mL) | 11.4 µM (≈ 4.57 µg/mL) | > 400 µM | > 400 µM | 
